Results taken from PMC8567104 (Frontiers in Pharmacology, 2021).
“And” between values parts separate entries of the source, which are not always exact repeats. Identical values can stand only once. Like-named read-outs stand apart in the source and are kept apart here.

Legend:
hNav1.5 [1] = target: T1, hNav1.5 (Homo sapiens, UniProt Q14524)
Protocol: (§1) Electrophysiological experiments were performed as previously described ([Ludolph et al., 2010]; [Föhr et al., 2021]). Briefly, tsA201 cells were used for experiments 24–48 h after transfection. Membrane currents were recorded in the whole-cell recording mode using an EPC-9 amplifier and Patchmaster software (v2x73; HEKA, Lambrecht, Germany ([Hamill et al., 1981])). Before recording, cells were rinsed twice with an extracellular standard solution containing (in mM): 140 NaCl, 5 KCl, 1.5 CaCl2, 1.0 MgCl2, 10 glucose and 12 HEPES (4-(2-hydroxyethyl)piperazine- 1-ethanesulfonic acid; pH 7.3). For establishing activation curves, the concentration of NaCl was reduced to 30 mM to achieve current amplitudes in the range of 1 nA. Lacking cations were replaced equimolar by N-Methyl-D-glucamine (NMDG). Patch pipettes were drawn from borosilicate glass with tip resistances of about 2 MΩ when filled with (in mM): 125 CsF, 10 NaCl, 10 EGTA (ethylene glycol-bis(2-aminoethylether)-N,N,N′,N′-tetraacetic acid), 10 HEPES; pH 7.2. To improve sealing, tips were briefly dipped into 2% dimethylsilane dissolved in dichloromethane.
(§2) Unless otherwise stated, the membrane potential was held at −140 mV from which channel activations were elicited by brief depolarizing pulses to −20 mV of 5 ms duration. In order to minimize voltage errors, the series resistance was compensated up to 80%. Cells with currents larger than 6 nA were excluded from evaluation. Specific protocols are illustrated in figure legends where appropriate.

hNav1.5 F1760K mutant = hNav1.5 F1760K mutant (Homo sapiens, UniProt Q14524, F1760K, form not given); settings: inactivated channels
Protocol: as §1
(§3) Concentration-inhibition curves for estimating Kr (IC 50 at −140 mV; Figure 3), Ki (Figures 8, 13, 14), Ko (Figures 12, 17) or K app (Figure 9) were fitted to the Hill-equation.

hNav1.5 N406C mutant = hNav1.5 N406C mutant (Homo sapiens, UniProt Q14524, N406C); settings: inactivated channels
Protocol: as §1, §3

[2] = target: T2, hNav1.5_I408W_L409C_A410W (WCW mutant) (Homo sapiens, UniProt Q14524, A410W/I408W/L409C); assay: Open channel block, persistent current of inactivation-deficient WCW mutant; format: cell-based; settings: for Hill-coefficient: persistent current
T2 construct: expressed in transfected cells; host or cells: tsA201 (HEK293 derivative)
Protocol: as §1, §2, §3

hNav1.5 [3] = target: T1, hNav1.5; assay: Interaction with the inactivated state: steady-state parameters (20 s inactivation at −20 mV); format: cell-based; design: expressed in transfected cells; host or cells: tsA201 (HEK293 derivative); settings: for Hill-coefficient n: concentration-inhibition curve after 20 s inactivation at −20 mV
Protocol: as §1, §2, §3
I D and I C are the current amplitudes in the presence and absence of the drug, where [D] is the concentration of the drug.
To this end, a double pulse protocol was used as outlined by Figure 8B. […] To minimize drift effects during these long-lasting experiments, each run included its own control. Thus, drug effects as measured by the test-pulse were related to the timely executed control activation. […]

hNav1.5 [4] = target: T1, hNav1.5; assay: Time-dependent development of block (inactivating pre-pulse to −20 mV of variable duration); format: cell-based; design: expressed in transfected cells; host or cells: tsA201 (HEK293 derivative); settings: for remaining current at the longest inactivation time: inactivation up to 30 s at −20 mV; for time constant of reduction of availability: single exponential, inactivation at −20 mV; for Amount of τ1 component / Amount of τ2 component / τ1 of block development / τ2 of block development: double exponential fit
Protocol: as §1, §2
Association (k on in µM^−1s^−1) and dissociation rates (k off in s^−1) were estimated from the slope and the y-intercept of a linear regression where the inverse of the fast time constants (1/τ) was plotted against the drug concentration [D] (Kuo et al., 1997). 1/τ=koff+kon∗[D] (9)
The corresponding dissociation constants were calculated according to: Kd=koff/kon (10)
Next, a set of experiments was performed to describe the time course of block development. The protocol is illustrated in Figure 7D. Briefly, after channel activation from a holding potential of −140 mV for control, ample time for full recovery at the holding potential was provided. Thereafter, the channels were inactivated for a variable duration (range: 25 ms–30 s) at a potential of −20 mV. Immediately before the test-pulse, channels were allowed to recover once more at the holding potential to eliminate or minimize the impact from fast inactivation. For evaluation, the current amplitudes obtained for test-pulses were related to their controls. […] For further evaluation, data were normalized with respect to control values (Figure 7B). […] The on-rate (k on ) was directly taken from the slope of the linear regression and the off-rate (k off ) was given by the y-intercept (Eq. 9, 10). For estimating the affinity for the inactivated state, the K i values were separately calculated for each cell according to the relation K i = k off /k on .
FIGURE 7 Time-dependent interaction. […] (B) Data from A, normalized with respect to control. […] Kon and koff values were taken from the slope and the y-intercept of the linear regression, respectively. […] (D) Experimental scheme. Starting from a holding potential of −140 mV, first a control pulse to […] was executed. Thereafter, ample time (2 s) was given to allow for full recovery before channels were inactivated for a variable duration at −20 mV. The test-pulse was carried out after a short recovery at −140 mV. For evaluation, test-pulse amplitudes were related to their controls.
FIGURE 15 Time-dependent interaction of imipridone derivatives.

[5] = design: method as in Allen et al., 2016; settings: weekly oral dose of 625 mg; patients; ref Allen et al., 2016; cited from earlier work
hNav1.5 [6] = target: T1, hNav1.5; assay: Voltage-dependence of fast inactivation; format: cell-based; design: expressed in transfected cells; host or cells: tsA201 (HEK293 derivative)
Protocol: as §1, with “dichloromethane. […]” for “dichloromethane.”
FIGURE 5 Voltage-dependence of fast inactivation. […] Voltage-dependence of fast inactivation was determined by measuring sodium currents elicited by 5 ms depolarizations to −20 mV after conditioning pre-pulses for 500 ms to different potentials (range −140 to −45 mV).

hNav1.5 [7] = target: T1, hNav1.5; assay: cell-based
Protocol: as §1, §2

hNav1.5 [8] = target: T1, hNav1.5; settings: 10 µM
Protocol: as §1, §2
Recovery time constants were estimated from double or triple exponential fits according to: I/Imax=1−a1∗e^(−t/τ1)−a2∗e^(−t/τ2)−a3∗e^(−t/τ3) (11)
Variable identifiers have the same meaning as before, with a 1 + a 2 + a 3 = 1.
If a drug interacts with the inactivated state (fast or slow), it is expected that also recovery from inactivation is affected. We analyzed this aspect by the use of a tri-pulse experiment (Figure 10B). After an initial control pulse, sufficient time was provided for full recovery. Next channels were inactivated for 500 ms at −20 mV. The test-pulse was initiated after channels had been allowed to recover at a potential of −140 mV for a variable time (range: 0.2 ms to 2.7 s). For evaluation, the current amplitudes of the test-pulses were related to their controls and plotted versus the recovery time (Figure 10A). To describe the time course of recovery, data points were fitted with double exponential functions (Eq. 11). […] In order to estimate recovery from slow inactivation, the experimental scheme was modified to a prolonged inactivation time (10 s) and an expansion of the recovery time up to 32.8 s (Figure 10D).
FIGURE 10 Recovery from inactivation. (A) Recovery from fast inactivation. The relative amount of available channels versus the recovery time at −140 mV is illustrated. Solid lines represent fits with two exponential functions according to Eq. 11. (B) Experimental scheme. After an initial control pulse, inactivation was performed at −20 mV for 500 ms. The test-pulse was applied after a varying time of recovery. For evaluation, current amplitudes of the test-pulses were related to their controls.

hNav1.5 [9] = target: T1, hNav1.5; settings: 40 µM (highest concentration tested); holding potential −140 mV; 30 s preincubation
Protocol: as §1
Unless otherwise stated, the membrane potential was held at −140 mV from which channel activations were elicited by brief depolarizing pulses to −20 mV of 5 ms duration. In order to minimize voltage errors, the series resistance was compensated up to 80%. […]

Cc1ccccc1CN1C(=O)C2=C(CCN(Cc3ccccc3)C2)N2CCN=C12 [TIC10]
current amplitude in the presence of TIC10 compared to control (hNav1.5 [1]; 10 µM, holding potential −90 mV, depolarization to −20 mV): about half of its size
slope (k) of activation curve (hNav1.5 [1]; in the presence of 10 µM, control 7.2 ± 0.6 mV): 7.9 ± 0.8 mV
potential of half-maximal activation (midpoint of activation curve) (hNav1.5 [1]; in the presence of 10 µM, control −43.1 ± 2.9 mV): −44.8 ± 2.8 mV
Hill-coefficient (hNav1.5 F1760K mutant; F1760K mutant): 1.5 ± 0.1
reduction of affinity of F1760K mutant compared to wild type (hNav1.5 F1760K mutant): more than 20 fold
Hill-coefficient (hNav1.5 N406C mutant): 1.2 ± 0.1
Hill-coefficient [2]: 0.9 ± 0.1
effect on transient current (resting state) ([2]; up to 40 µM): hardly affected
Hill-coefficient n (hNav1.5 [3]): 1.2 ± 0.1
remaining current at the longest inactivation time (hNav1.5 [4]; 2.5 µM, control 59.2 ± 7.7%): 46.0 ± 4.8%
time constant of reduction of availability (hNav1.5 [4]; 2.5 µM, control 10.1 ± 2.0 s): 5.3 ± 1.9 s
remaining current at the longest inactivation time (hNav1.5 [4]; 10 µM): 16.9 ± 6.4%
time constant of reduction of availability (hNav1.5 [4]; 10 µM): 2.0 ± 0.8 s
maximal plasma concentration [5]: 4.3 µM
slope of fast inactivation curve (hNav1.5 [6]; in the presence of 10 µM, 5.3 ± 0.9 mV in the absence): 5.4 ± 0.9 mV
potential of half-maximal slow inactivation (hNav1.5 [7]; 10 µM, 10 s pre-pulses, control −42.9 ± 5.0 mV): −92.7 ± 7.0 mV
slope of slow inactivation curve (hNav1.5 [7]; 10 µM, control 21.5 ± 2.7 mV): 12.8 ± 0.9 mV
availability (remaining current amplitude) at pre-pulse potential 0 mV (hNav1.5 [7]; 10 µM, control 45.6 ± 10.9%): 4.7 ± 2.8%
inhibition at 10 µM (hNav1.5 [7]; read-out: inhibition normalized to control at 0 mV): 89.7 ± 6.5%
inhibition at 10 µM (hNav1.5 [7]; read-out: inhibition normalized to control at −40 mV): 88.3 ± 5%
Amount of τ1 component (hNav1.5 [8]; 10 s inactivation): 36.3 ± 16.0%
Amount of τ2 component (hNav1.5 [8]; 10 s inactivation): 62.2 ± 15.7%
τ1 for recovery from slow-inactivation (hNav1.5 [8]; 10 s inactivation): 128.1 ± 80.3 ms
τ2 for recovery from slow-inactivation (hNav1.5 [8]; 10 s inactivation): 548.4 ± 287.4 ms
proportion of fast recovering channels (hNav1.5 [8]; 500 ms inactivation at −20 mV, recovery at −140 mV, control 92.6 ± 4.0%): 75.6 ± 7.0%
recovery time constant τ1 (hNav1.5 [8]; control 1.4 ± 0.6 ms): 2.3 ± 1.2 ms
recovery time constant τ2 (hNav1.5 [8]; control 23.6 ± 12.0 ms): 267.6 ± 73.1 ms
remaining current (of control) (hNav1.5 [9]): 93.2 ± 4.3%

O=C1C2=C(CCN(Cc3ccccc3)C2)N2CCN=C2N1Cc1ccc(C(F)(F)F)cc1 [ONC212]
Hill-coefficient [2]: 1.4 ± 0.2
IC50 (hNav1.5 [3]; after 20 s inactivation at −20 mV, short recovery at −140 mV, wild type, read-out: half-maximal inhibition (IC50), representing the affinity for the inactivated state (Ki)): 2500 ± 700 nM
Hill-coefficient n (hNav1.5 [3]): 1.5 ± 0.1
Amount of τ1 component (hNav1.5 [4]; 2.5 µM): 8.8 ± 4.5%
Amount of τ2 component (hNav1.5 [4]; 2.5 µM): 57.4± 6.6%
τ1 of block development (hNav1.5 [4]; 2.5 µM): 0.2 ± 0.06 s
τ2 of block development (hNav1.5 [4]; 2.5 µM): 4.6 ± 0.95 s
Amount of τ1 component (hNav1.5 [4]; 10 µM): 45.2 ± 6.5%
Amount of τ2 component (hNav1.5 [4]; 10 µM): 46.9 ± 7.2%
τ1 of block development (hNav1.5 [4]; 10 µM): 0.1 ± 0.03 s
τ2 of block development (hNav1.5 [4]; 10 µM): 2.2 ± 0.27 s
shift of midpoints of fast inactivation (hNav1.5 [6]; 10 µM, 500 ms pre-pulses, corrected for drug independent shift): −4.7 ± 0.4 mV and −4.7 ± 0.42 mV
